Patent US20250099531A1, “SYNERGISTIC COMPOSITIONS FOR ENHANCING TFEB-MEDIATED INTRACELLULAR CLEARANCE” (CELAGENEX RESEARCH (INDIA) PVT. LTD., priority 2022, published 2025)
Read-outs that look alike come from different tables or passages of the source.

Key:
[1] = test system: Human Monocytes (THP-1) cell line; experiment: Estimation of autophagy using flow cytometer by CYTO-ID Autophagy Detection Kit; assay type: cell-based; settings: THP-1 cells in autophagy, 24 h treatment, amounts as in the group description
Procedure: [table] […] To each well of the 6 well plates, 2 mL of the diluted cell suspension was added. After 24 h, 1 mL of different test concentrations and combinations of test substances were added. […] THP-1 cells were incubated with Rapamycin, and test substances in a 6-well plate. Followed by incubation, cells from different groups were harvested and measured using CYTO-ID autophagy detection kit by flow cytometer. All the reagents, standard solutions and samples will be thawed to room temperature before use. The assay was carried out as per manufacturer's instructions.

[2] = test system: Human Monocytes (THP-1) cell line; settings: 24 h
Procedure: The in vitro cytotoxicity was performed on Human Monocytes (THP-1) cell line to find the non-toxic concentrations of the test substances by WST-1 assay and evaluate their autophagic activity in Human Monocytes by CYTO-ID® Autophagy Detection Kit
About 10 mg of the test substances, N-(3-Aminopropyl)-1,4-butanediamine and N-α-Acetyl-N-β-alanyl-L-histidine were dissolved separately with 1 mL RPMI-1640 supplemented with 2% inactivated FBS to obtain a stock solution of 10 mg/mL concentration. Diluted the stock to desired concentrations for carrying out further studies.
THP-1 (Human Monocyte cells) was procured from NCCS, India. Stock cells were cultured in RPMI-1640 supplemented with 10% inactivated Fetal Bovine Serum (FBS), penicillin (100 IU/mL), streptomycin (100 μg/mL) and amphotericin B (5 μg/mL) in an humidified atmosphere of 5% CO2 at 37° C. until confluent. The stock cultures were grown in 25 cm^2 culture flasks and all experiments were carried out in 96 microtitre plates and 6 well plate (Tarsons India Pvt. Ltd., Kolkata, India).
The cell count was adjusted to 100,000 cells/mL using RPMI-1640 containing 10% FBS. To each well of the 96 well micro titre plate, 0.1 mL of the diluted cell suspension was added. After 24 h, 0.1 mL of different test concentrations were added in the micro titre plate. The untreated cells were maintained as cell control for comparison. The plate was then incubated at 37° C. for 24 h in 5% CO2 atmosphere, and microscopic examination was carried out and observations were noted. After 24 h, 20 μL of WST-1 added to each well and incubated for 3 h at 37° C. in 5% CO2 atmosphere. The plates were gently shaken and the absorbance was measured using a micro plate reader at a wavelength of 490 nm.

SMILES | Percentage cells expressed CYTO-ID [1] | Percentage cytotoxicity after treatment ([2]; 0.01 mg/mL) | Percentage cytotoxicity after treatment ([2]; 0.03 mg/mL) | Percentage cytotoxicity after treatment ([2]; 0.06 mg/mL) | Percentage cytotoxicity after treatment ([2]; 0.07 mg/mL) | Percentage cytotoxicity after treatment ([2]; 0.12 mg/mL) | Percentage cytotoxicity after treatment ([2]; 0.25 mg/mL) | Percentage cytotoxicity after treatment ([2]; 0.5 mg/mL) | Percentage cytotoxicity after treatment ([2]; 1 mg/mL) | Percentage cytotoxicity after treatment ([2]; 5 mg/mL)
CO[C@H]1C[C@@H]2CC[C@@H](C)[C@@](O)(O2)C(=O)C(=O)N2CCCC[C@H]2C(=O)O[C@H]([C@H](C)C[C@@H]2CC[C@@H](O)[C@H](OC)C2)CC(=O)[C@H](C)/C=C(\C)[C@@H](O)[C@@H](OC)C(=O)[C@H](C)C[C@H](C)/C=C/C=C/C=C/1C [Rapamycin, reference compound] | 18.85% | – | – | – | – | – | – | – | – | –
NCCCCNCCCN [N-(3-Aminopropyl)-1,4-butanediamine] | 7.24% | 0.74 ± 0.25% | 0.68 ± 2.30% | 0.94 ± 0.18% | 0.86 ± 2.08% | 1.20 ± 0.87% | 4.10 ± 1.63% | 11.79 ± 3.36% | 22.88 ± 2.80% | 39.37 ± 1.37%
CC(=O)NCCC(=O)N[C@@H](Cc1c[nH]cn1)C(=O)O [N-α-Acetyl-N-β-alanyl-L-histidine] | 4.03% | – | – | – | – | – | – | – | – | –
